These results are taken from US10357478B2, “Polyamide compound and pharmaceutical composition for treating mitochondrial genetic diseases” (Triplex Therapeutics Inc., priority 2011, dated 2019).

Series [1] deals with wild-type dsDNA (normal (wild-type) mtDNA template, 21 bases containing the 3243rd base). In words: EMSA (electrophoretic mobility shift assay), binding to wild-type oligo-DNA. The following applies: 10^−4 M polyamide, 1 hour at 37° C. On the procedure: (§1) In this Example, a binding specific to the base sequence was confirmed in vitro between the ML1 polyamide and the target. The assay was carried out in EMSA (electrophoretic mobility shift assay). The wild-type oligo-DNA with 21 bases containing the 3243rd base on which the A3243G mutation exists and the A3243G mutation oligo-DNA thereof were produced. A sense-stranded DNA with FITC bound at 5′-end and an antisense-stranded DNA were thermally denatured, slowly cooled, and annealed to obtain dsDNAs having the following sequence:
(§2) To dsDNA (50 pmol/10 μL), 40 μL of ddH2O was added and the whole was diluted to 1 pmol/μL. 4 pmol of the resulting dsDNA were mixed with the MLI polyamide solution so that the concentration became 10^−4M, and incubated for 1 hour at 37° C. Then, the sample was mixed with a loading buffer and applied on 20% non-denatured acrylamide gel (0.5×TBE) which was pre-run for 10 minutes at 350 V. An electrophoresis was carried out at 4′C and 100 V until BPB reached ¾ of the lower end of the gel, and a shift of the band was detected by LAS-3000 (Fuji Film).
(§3) The composition of the non-denatured acrylamide gel used in EMSA is shown as below: […]
(In general: Mobility shift assays separate free from complexed probe on a gel.)

For series [2], the system named is A3243G mutant dsDNA (A3243G mutation mtDNA template). Briefly: EMSA (electrophoretic mobility shift assay), binding to A3243G mutation oligo-DNA. The following applies: 10^−4 M polyamide, 1 hour at 37° C. On the procedure:
as §1, §2, §3

The test system of series [3] is 2SD cybrid cells (MELAS cybrid cells). In words: Replication of wild-type mtDNAs in MELAS cybrid cells (PCR-RFLP). It is filed as cell-based. The note with it: for increase level of wild-type mtDNAs in comparison with control: long-term (7, 15 or 35 days); for increase of wild-type mtDNAs: 35 days. On the procedure:
The MLI polyamide was given to the cultivated MELAS cybrid cells to confirm if the wild-type mtDNAs were positively reproduced in cells.
2SD cybrid cells were seeded on a 10 cm dish, and the MLI polyamide dissolved in 50% DMSO was added to the complete DMEM so that a final concentration thereof became 1 μM, 5 μM, or 10 μM. The medium to which the MLI polyamide was added was replaced every third day. In the control experiments, DMSO with the same diluted rate was added to the medium. The polyamide solution in 50% DMSO solution was diluted with ddH2O so that the concentration of DMSO in the medium became 0.1% or less, or 0.05% at a maximum.
Total DNAs were extracted from the cybrid cells treated by the MLI polyamide 14 days later, PCR-RFLP was then carried out, the bands were quantitatively analyzed by microchip electrophoresis (MCE-202 MultiNA; Shimadzu Corporation), and a mutation rate of the cybrid cells was analyzed.
Further, long-term effects were analyzed when the concentration of the MLI polyamide in the medium was 1 μM, 500 nM, or 100 nM. Total DNAs were extracted from the cybrid cells 7 days, 15 days, or 35 days later, PCR-RFLP was then carried out, electrophoresis was performed on 2% agarose gel (1×TAE), and an increase level of the wild-type mtDNAs was measured.

A further series has as its system 143B cells. In words: Cytotoxicity in DMEM without sodium pyruvate and uridine, 143B cells. It is filed as cell-based. The following applies: 100 nM, 500 nM or 1 μM, 30 hours or 1 week. On the procedure:
(§4) 143B cells or HeLa cells were cultured in a medium prepared by adding 1 μM of ML1 polyamide to a 10% FBS-added DMEM (free of sodium pyruvate and uridine) wherein respiratory chain-defective cells are inviable. The synthesis of the respiratory chain proteins in mitochondria is essential to life-support, and only a slight dysfunction thereof results in cell death.
(§5) 143B cells or HeLa cells were cultured for a week in normal DMEM, complete DMEM (containing 0.1 mg/mL of sodium pyruvate, and 50 μg/mL of uridine), complete DMEM with the ML1 polyamide, or DMEM with the ML1 polyamide, and survival or death was observed.
(§6) In the culture of 143B cells, the MLI polyamide was added at the concentration of 100 nM, 500 nM, or 1 μM, whereas in the culture of Hela cells, the MLI polyamide was added at the concentration of 1 μM.

The test system of another series is HeLa cells. In words: Cytotoxicity in DMEM without sodium pyruvate and uridine, HeLa cells. It is filed as cell-based. The following applies: 1 μM, 30 hours or 1 week. How it is done: as §4, §5, §6
Where [4] appears, read: 1 μM, 14 days, PCR-RFLP, microchip electrophoresis.
The mark [5] stands for this setting: 5 μM, 14 days, PCR-RFLP, microchip electrophoresis.

Molecules are shown by their SMILES.

As to `CC(=O)Nc1cc(C(=O)Nc2cc(C(=O)Nc3cc(C(=O)NCCC(=O)Nc4cn(C)c(C(=O)Nc5cc(C(=O)Nc6cc(C(=O)NCCCC(=O)Nc7cn(C)c(C(=O)Nc8cn(C)c(C(=O)Nc9cc(C(=O)NCCC(=O)Nc%10cn(C)c(C(=O)Nc%11cc(C(=O)Nc%12cn(C)c(C(=O)NCCC(=O)NCCCN(C)C)n%12)n(C)c%11)n%10)n(C)c9)n8)n7)n(C)c6)n(C)c5)n4)n(C)c3)n(C)c2)n(C)c1` [ML1 polyamide, Ac-Py-Py-Py-β-Im-Py-Py-γ-Im-Im-Py-β-Im-Py-Im-β-Dp], the “shift of the band of wild-type dsDNA in EMSA” value is given as “significantly shifted” in series [1] and “clear shift of the band” in series [1] (listed as MLI polyamide). Further, the “shift of the band of A3243G mutant dsDNA in EMSA” value in series [2] is recorded as “no significant shift”; in series [2] (listed as MLI polyamide), “not clearly observed”. The “increase level of wild-type mtDNAs in comparison with control” value is on record as “grossly visible increase level” in series [3] (100 nM, PCR-RFLP, agarose gel); “grossly visible increase level” in series [3] (500 nM, PCR-RFLP, agarose gel); “grossly visible increase level” in series [3] (1 μM, PCR-RFLP, agarose gel). Besides, the “increase level of wild-type mtDNA” value is “significant increase level” in series [3] (500 nM, 15 days, agarose gel); “increase levels of wild-type mtDNA” in series [3] (setting [4]); “concentration-dependent increase level” in series [3] (1 μM, 14 days, PCR-RFLP, microchip electrophoresis, listed as MLI polyamide); “increase levels of wild-type mtDNA” in series [3] (setting [5]); “concentration-dependent increase level” in series [3] (5 μM, 14 days, PCR-RFLP, microchip electrophoresis, listed as MLI polyamide). For the same compound, the “increase of wild-type mtDNAs” value is “continuous increase level” in series [3] (500 nM, agarose gel) and “continuous increase” in series [3] (500 nM, agarose gel, listed as MLI polyamide). For the same compound, the “mutation rate of the cybrid cells” value in series [3] (setting [4]) and in series [3] (setting [5]) was “decrease of the mutation rate” throughout. Further, the “morphological changes or cell cytotoxicity” value in the series with 143B cells and with HeLa cells was “did not show any morphological changes or cell cytotoxicity” throughout.
